# Experimental data reported in patent US20100267561A1, “HERBICIDAL PYRIDAZINONE DERIVATIVES” (priority 2007, published 2010).
# Tests used:
# Assay in all cases: Test B pre-/postemergence plant response
# Type in all cases: in vivo
# [1] = test system: bermudagrass (Cynodon dactylon); conditions: for Bermudagrass plant response rating: 8 g ai/ha
# Outline: (§1)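 Visual scoring from 0 (no effect) to 100 (complete control) against untreated controls was done 13 to 15 days after greenhouse treatment. Chemicals were formulated in a surfactant-containing non-phytotoxic solvent and applied to soil preemergence or to 1- to 4-leaf (2-18 cm) plants postemergence.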
# [2] = test system: blackgrass (Alopecurus myosuroides); conditions: for Blackgrass plant response rating: 8 g ai/ha
# Outline: as §1
# [3] = test system: catchweed bedstraw (Galium aparine); conditions: Preemergence
# Outline: as §1
# [4] = test system: common (oilseed) sunflower (Helianthus annuus); conditions: Preemergence
# Outline: as §1
# [5] = test system: corn (Zea mays); conditions: for Corn plant response rating: 8 g ai/ha
# Outline: as §1
# [6] = test system: downy bromegrass (Bromus tectorum); conditions: for Bromegrass, Downy plant response rating: 8 g ai/ha
# Outline: as §1
# [7] = test system: giant foxtail (Setaria faberii); conditions: for Foxtail, Giant plant response rating: 8 g ai/ha
# Outline: as §1
# [8] = test system: green foxtail (Setaria viridis); conditions: for Foxtail, Green plant response rating: 8 g ai/ha
# Outline: as §1
# [9] = test system: lambsquarters (Chenopodium album); conditions: for Lambsquarters plant response rating: 8 g ai/ha
# Outline: as §1
# [10] = test system: large crabgrass (Digitaria sanguinalis); conditions: for Crabgrass, Large plant response rating: 8 g ai/ha
# Outline: as §1
# [11] = test system: morningglory (Ipomoea coccinea); conditions: for Morningglory plant response rating: 8 g ai/ha
# Outline: as §1
# [12] = test system: velvetleaf (Abutilon theophrasti); conditions: for Velvetleaf plant response rating: 8 g ai/ha
# Outline: as §1
# [13] = test system: wheat (Triticum aestivum); conditions: for Wheat plant response rating: 8 g ai/ha
# Outline: as §1
# [14] = test system: wild oat (Avena fatua); conditions: for Oat, Wild plant response rating: 8 g ai/ha
# Outline: as §1
# [15] = Postemergence, 16 g ai/ha, scale 0 to 100
# [16] = Postemergence, 31 g ai/ha, scale 0 to 100, 0 no effect, 100 complete control
# [17] = Postemergence, 62 g ai/ha, scale 0 to 100, 0 no effect, 100 complete control
# [18] = Preemergence, 16 g ai/ha, scale 0 to 100 (0 no effect, 100 complete control)
# [19] = Preemergence, 31 g ai/ha, 0 to 100 scale, 0 no effect, 100 complete control
# [20] = Preemergence, 62 g ai/ha, scale 0 to 100
# [21] = 16 g ai/ha, scale 0 to 100 (0 no effect, 100 complete control)
# [22] = Preemergence, 31 g ai/ha, scale 0 to 100 (0 no effect, 100 complete control)
# [23] = Preemergence, 62 g ai/ha, 0 to 100 scale, 0 no effect, 100 complete control
structure (smiles),measurement,setting,value
CCc1cc(-c2ccc(Cl)cc2)nn1-c1c(OC(=O)C(C)(C)C)cnn(C)c1=O [Compound 40],Bermudagrass plant response rating,"[1]; postemergence, 0-100 scale",0
same,"Plant response rating, Bermudagrass",[1]; [15],60
same,"Plant response rating, Bermudagrass",[1]; [16],65
same,"Plant response rating, Bermudagrass",[1]; [17],98
same,Bermudagrass plant response rating,"[1]; Preemergence, scale 0 to 100 (0 no effect, 100 complete control)",0
same,"Plant response rating, Bermudagrass",[1]; [18],90
same,"Plant response rating, Bermudagrass",[1]; [19],100
same,"Plant response rating, Bermudagrass",[1]; [20],100
same,Blackgrass plant response rating,"[2]; postemergence, 0-100 scale",85
same,"Plant response rating, Blackgrass",[2]; [15],90
same,"Plant response rating, Blackgrass",[2]; [16],90
same,"Plant response rating, Blackgrass",[2]; [17],90
same,"Plant response rating, Blackgrass",[2]; [18],95
same,"Plant response rating, Blackgrass",[2]; [19],95
same,"Plant response rating, Blackgrass",[2]; [20],95
same,Blackgrass plant response rating,"[2]; Preemergence, scale 0 to 100",95
same,"Plant response rating, Galium",[3]; [21],0
same,"Plant response rating, Galium","[3]; 31 g ai/ha, 0 to 100 scale, 0 no effect, 100 complete control",0
same,"Plant response rating, Galium","[3]; 62 g ai/ha, scale 0 to 100",0
same,Galium plant response rating,"[3]; 8 g ai/ha, scale 0 to 100",0
same,"Plant response rating, Sunflower",[4]; [21],0
same,"Plant response rating, Sunflower","[4]; 31 g ai/ha, scale 0 to 100 (0 no effect, 100 complete control)",0
same,"Plant response rating, Sunflower","[4]; 62 g ai/ha, scale 0 to 100",0
same,Sunflower plant response rating,"[4]; 8 g ai/ha, scale 0 to 100",0
same,Corn plant response rating,"[5]; postemergence, 0-100 scale",0
same,"Plant response rating, Corn",[5]; [15],0
same,"Plant response rating, Corn",[5]; [16],100
same,"Plant response rating, Corn",[5]; [17],100
same,"Plant response rating, Corn",[5]; [18],75
same,"Plant response rating, Corn",[5]; [19],85
same,"Plant response rating, Corn",[5]; [20],95
same,Corn plant response rating,"[5]; Preemergence, scale 0 to 100",55
same,"Bromegrass, Downy plant response rating","[6]; postemergence, 0-100 scale",50
same,"Plant response rating, Bromegrass, Downy",[6]; [15],60
same,"Plant response rating, Bromegrass, Downy",[6]; [16],80
same,"Plant response rating, Bromegrass, Downy",[6]; [17],100
same,"Plant response rating, Bromegrass, Downy",[6]; [18],60
same,"Plant response rating, Bromegrass, Downy",[6]; [19],80
same,"Plant response rating, Bromegrass, Downy",[6]; [20],90
same,"Bromegrass, Downy plant response rating","[6]; Preemergence, scale 0 to 100",0
same,"Foxtail, Giant plant response rating","[7]; postemergence, 0-100 scale",100
same,"Plant response rating, Foxtail, Giant",[7]; [15],100
same,"Plant response rating, Foxtail, Giant",[7]; [16],100
same,"Plant response rating, Foxtail, Giant",[7]; [17],100
same,"Plant response rating, Foxtail, Giant",[7]; [18],100
same,"Plant response rating, Foxtail, Giant",[7]; [19],100
same,"Plant response rating, Foxtail, Giant",[7]; [20],100
same,"Foxtail, Giant plant response rating","[7]; Preemergence, scale 0 to 100",100
same,"Foxtail, Green plant response rating","[8]; postemergence, 0-100 scale",85
same,"Plant response rating, Foxtail, Green",[8]; [15],95
same,"Plant response rating, Foxtail, Green",[8]; [16],100
same,"Plant response rating, Foxtail, Green",[8]; [17],100
same,"Plant response rating, Foxtail, Green",[8]; [18],100
same,"Plant response rating, Foxtail, Green",[8]; [19],100
same,"Plant response rating, Foxtail, Green",[8]; [20],100
same,"Foxtail, Green plant response rating","[8]; Preemergence, scale 0 to 100",90
same,Lambsquarters plant response rating,"[9]; postemergence, 0-100 scale",0
same,"Plant response rating, Lambsquarters",[9]; [15],0
same,"Plant response rating, Lambsquarters",[9]; [16],0
same,"Plant response rating, Lambsquarters",[9]; [17],0
same,"Plant response rating, Lambsquarters",[9]; [18],0
same,"Plant response rating, Lambsquarters",[9]; [19],0
same,"Plant response rating, Lambsquarters",[9]; [20],0
same,Lambsquarters plant response rating,"[9]; Preemergence, scale 0 to 100",0
same,"Crabgrass, Large plant response rating","[10]; postemergence, 0-100 scale",70
same,"Plant response rating, Crabgrass, Large",[10]; [15],98
same,"Plant response rating, Crabgrass, Large",[10]; [16],98
same,"Plant response rating, Crabgrass, Large",[10]; [17],100
same,"Plant response rating, Crabgrass, Large",[10]; [18],100
same,"Plant response rating, Crabgrass, Large",[10]; [19],100
same,"Plant response rating, Crabgrass, Large",[10]; [20],100
same,"Crabgrass, Large plant response rating","[10]; Preemergence, scale 0 to 100",45
same,Morningglory plant response rating,"[11]; postemergence, 0-100 scale",0
same,"Plant response rating, Morningglory",[11]; [15],0
same,"Plant response rating, Morningglory",[11]; [16],0
same,"Plant response rating, Morningglory",[11]; [17],0
same,"Plant response rating, Morningglory",[11]; [18],0
same,"Plant response rating, Morningglory",[11]; [22],0
same,"Plant response rating, Morningglory",[11]; [20],0
same,Morningglory plant response rating,"[11]; Preemergence, scale 0 to 100",0
same,Velvetleaf plant response rating,"[12]; postemergence, 0-100 scale",0
same,"Plant response rating, Velvetleaf",[12]; [15],0
same,"Plant response rating, Velvetleaf",[12]; [17],0
same,"Plant response rating, Velvetleaf",[12]; [18],0
same,"Plant response rating, Velvetleaf",[12]; [22],0
same,"Plant response rating, Velvetleaf",[12]; [23],0
same,Velvetleaf plant response rating,"[12]; Preemergence, scale 0 to 100",0
same,Wheat plant response rating,"[13]; postemergence, 0-100 scale",70
same,"Plant response rating, Wheat",[13]; [15],70
same,"Plant response rating, Wheat",[13]; [17],100
same,"Plant response rating, Wheat",[13]; [18],60
same,"Plant response rating, Wheat",[13]; [22],60
same,"Plant response rating, Wheat",[13]; [23],90
same,Wheat plant response rating,"[13]; Preemergence, scale 0 to 100",5
same,"Oat, Wild plant response rating","[14]; postemergence, 0-100 scale",95
same,"Plant response rating, Oat, Wild",[14]; [15],100
same,"Plant response rating, Oat, Wild",[14]; [16],100
same,"Plant response rating, Oat, Wild",[14]; [17],100
same,"Plant response rating, Oat, Wild",[14]; [18],85
same,"Plant response rating, Oat, Wild",[14]; [22],90
same,"Plant response rating, Oat, Wild",[14]; [20],95
same,"Oat, Wild plant response rating","[14]; Preemergence, scale 0 to 100",60
